According to ChEMBL document CHEMBL5715937, “In vitro activity of Bcr-Abl inhibitors AMN107 and BMS-354825 against clinically relevant imatinib-resistant Abl kinase domain mutants” (Cancer Res, 2005):
Calls of active or inactive are those of the source. No cut-off for these calls is given here.

Assays:
[1] = Inhibition of BCR-ABL Q252H mutant (unknown origin) expressed in mouse BaF3 cells assessed as inhibition of cell growth incubated for 72 hrs by […] CellTiter96 viability analysis; conditions: for IC50: BaF3, 72 h
[2] = Inhibition of BCR-ABL F311L mutant (unknown origin) expressed in mouse BaF3 cells assessed as inhibition of cell growth incubated for 72 hrs by […] CellTiter96 viability analysis; conditions: for IC50: BaF3, 72 h
cells [3] = conditions: Mus musculus, BaF3, 3 h
[4] = Inhibition of BCR-ABL M351T mutant (unknown origin) expressed in mouse BaF3 cells assessed as inhibition of cell growth incubated for 72 hrs by […] CellTiter96 viability analysis; conditions: for IC50: BaF3, 72 h
cells [5] = conditions: Mus musculus, BaF3, 3 h; remark: listed apart in the source
cells [6] = conditions: Mus musculus, BaF3, 3 h; remark: listed apart in the source
cells [7] = conditions: Mus musculus, BaF3, 3 h; remark: listed apart in the source
[8] = Inhibition of BCR-ABL H396P mutant (unknown origin) expressed in mouse BaF3 cells assessed as inhibition of cell growth incubated for 72 hrs by […] CellTiter96 viability analysis; conditions: for IC50: BaF3, 72 h
cells [9] = conditions: Mus musculus, BaF3, 3 h; remark: listed apart in the source
[10] = Cytotoxicity against mouse BaF3 cells assessed as reduction in cell proliferation incubated for 72 hrs by […] CellTiter96 viability analysis; assay type: toxicity
[11] = Inhibition of BCR-ABL F317L mutant (unknown origin) expressed in mouse BaF3 cells assessed as inhibition of cell growth incubated for 72 hrs by […] CellTiter96 viability analysis; conditions: for IC50: BaF3, 72 h
cells [12] = conditions: Mus musculus, BaF3, 3 h; remark: listed apart in the source
cells [13] = conditions: Mus musculus, BaF3, 3 h; remark: listed apart in the source
cells [14] = conditions: Mus musculus, BaF3, 3 h; remark: listed apart in the source
[15] = Inhibition of BCR-ABL Y253H mutant (unknown origin) expressed in mouse BaF3 cells assessed as inhibition of cell growth incubated for 72 hrs by […] CellTiter96 viability analysis; conditions: for IC50: BaF3, 72 h
[16] = Inhibition of BCR-ABL V379l mutant (unknown origin) expressed in mouse BaF3 cells assessed as inhibition of cell growth incubated for 72 hrs by […] CellTiter96 viability analysis; conditions: for IC50: BaF3, 72 h
[17] = Inhibition of BCR-ABL M244V mutant (unknown origin) expressed in mouse BaF3 cells assessed as inhibition of cell growth incubated for 72 hrs by […] CellTiter96 viability analysis; conditions: for IC50: BaF3, 72 h
[18] = Inhibition of BCR-ABL E255V mutant (unknown origin) expressed in mouse BaF3 cells assessed as inhibition of cell growth incubated for 72 hrs by […] CellTiter96 viability analysis; conditions: for IC50: BaF3, 72 h
[19] = Inhibition of BCR-ABL Y253F mutant (unknown origin) expressed in mouse BaF3 cells assessed as inhibition of cell growth incubated for 72 hrs by […] CellTiter96 viability analysis; conditions: for IC50: BaF3, 72 h
cells [20] = conditions: Mus musculus, BaF3, 3 h; remark: listed apart in the source
[21] = Inhibition of BCR-ABL F359V mutant (unknown origin) expressed in mouse BaF3 cells assessed as inhibition of cell growth incubated for 72 hrs by […] CellTiter96 viability analysis; conditions: for IC50: BaF3, 72 h
cells [22] = conditions: Mus musculus, BaF3, 72 h
cells [23] = conditions: Mus musculus, BaF3, 3 h; remark: listed apart in the source
cells [24] = conditions: Mus musculus, BaF3, 3 h; remark: listed apart in the source
[25] = Inhibition of BCR-ABL H396R mutant (unknown origin) expressed in mouse BaF3 cells assessed as inhibition of cell growth incubated for 72 hrs by […] CellTiter96 viability analysis; conditions: for IC50: BaF3, 72 h
[26] = Inhibition of BCR-ABL L387M mutant (unknown origin) expressed in mouse BaF3 cells assessed as inhibition of cell growth incubated for 72 hrs by […] CellTiter96 viability analysis; conditions: for IC50: BaF3, 72 h
cells [27] = conditions: Mus musculus, BaF3, 3 h; remark: listed apart in the source
[28] = Inhibition of BCR-ABL E255K mutant (unknown origin) expressed in mouse BaF3 cells assessed as inhibition of cell growth incubated for 72 hrs by […] CellTiter96 viability analysis; conditions: for IC50: BaF3, 72 h
[29] = Inhibition of BCR-ABL G250E mutant (unknown origin) expressed in mouse BaF3 cells assessed as inhibition of cell growth incubated for 72 hrs by […] CellTiter96 viability analysis; conditions: for IC50: BaF3, 72 h
BaF3 = experiment: Induction of apoptosis in mouse BaF3 cells expressing Bcr-Abl T315I mutant at 300 to 1500 nM incubated for 72 hrs by Annexin V-phycoerythrin and 7-amino-actinomycin D staining based PCA instrument analysis relative to control; assay type: functional, cell-based; conditions: dose 300-1500 nM
[30] = Inhibition of BCR-ABL V379l mutant (unknown origin) expressed in mouse BaF3 cells assessed as inhibition of tyrosine phosphorylation incubated for 3 hrs by immunoblotting analysis; assay type: cell-based; conditions: BaF3, 3 h
[31] = Inhibition of BCR-ABL H396P mutant (unknown origin) expressed in mouse BaF3 cells assessed as inhibition of tyrosine phosphorylation incubated for 3 hrs by immunoblotting analysis; assay type: cell-based; conditions: BaF3, 3 h
[32] = Inhibition of BCR-ABL F311L mutant (unknown origin) expressed in mouse BaF3 cells assessed as inhibition of tyrosine phosphorylation incubated for 3 hrs by immunoblotting analysis; assay type: cell-based; conditions: BaF3, 3 h
[33] = Inhibition of BCR-ABL L387M mutant (unknown origin) expressed in mouse BaF3 cells assessed as inhibition of tyrosine phosphorylation incubated for 3 hrs by immunoblotting analysis; assay type: cell-based; conditions: BaF3, 3 h
[34] = Inhibition of BCR-ABL phosphorylation in mouse BaF3 cells incubated for 3 hrs by immunoblotting analysis; assay type: functional, cell-based
[35] = BaF3, time 72 hrs, condition chronic myelogenous leukemia

Compound `Cc1nc(Nc2ncc(C(=O)Nc3c(C)cccc3Cl)s2)cc(N2CCN(CCO)CC2)n1` [DASATINIB ANHYDROUS] has an IC50 [1] of 3.4 nM, an IC90 [1, 35] of 11.2 nM and an IC50 [2] of 1.3 nM. It also gave an IC90 [2, 35] of 2.8 nM, an IC50 (cells [3]) of less than 10 nM and an IC50 [4] of 1.1 nM. For the same compound, the IC90 [4, 35] was 3 nM, the IC50 (cells [5]) was less than 10 nM and the IC50 (cells [6]) was less than 10 nM. The IC50 (cells [7]) was 10 nM, the IC50 [8] was 0.6 nM and the IC90 [8, 35] was 1.2 nM. For the same compound, the IC50 (cells [9]) was less than 10 nM, the IC50 at 72 h [10] was greater than 200 nM and the IC50 [11] was 7.4 nM. The IC90 [11, 35] was 15 nM, the IC50 (cells [12]) was less than 10 nM and the IC50 (cells [13]) was 10 nM. It also gave an IC50 (cells [14]) of 10 nM, an IC50 [15] of 1.3 nM and an IC90 [15, 35] of 3 nM. It also gave an IC50 [16] of 0.8 nM, an IC90 [16, 35] of 1.6 nM and an IC50 [17] of 1.3 nM. For the same compound, the IC90 [17, 35] was 1.8 nM, the IC50 [18] was 11 nM and the IC90 [18, 35] was 27 nM. It also gave an IC50 [19] of 1.4 nM, an IC90 [19, 35] of 3 nM and an IC50 (cells [20]) of less than 10 nM. The IC50 [21] was 2.2 nM, the IC90 [21, 35] was 4.8 nM and the IC50 (cells [22]) was greater than 200 nM. The IC50 (cells [23]) was less than 10 nM, the IC50 (cells [24]) was greater than 1000 nM and the IC50 [25] was 1.3 nM. For the same compound, the IC90 [25, 35] was 2.7 nM, the IC50 [26] was 2 nM and the IC90 [26, 35] was 4 nM. It also gave an IC50 (cells [27]) of less than 10 nM, an IC50 [28] of 5.6 nM and an IC90 [28, 35] of 12.8 nM. For the same compound, the IC50 [29] was 1.8 nM and the IC90 [29, 35] was 3 nM.
Work on `Cc1ccc(NC(=O)c2ccc(CN3CCN(C)CC3)cc2)cc1Nc1nccc(-c2cccnc2)n1` [IMATINIB] yielded an IC50 [1] of 1320 nM, an IC50 [2] of 480 nM and an IC50 (cells [3]) of 400 nM. It also gave an IC50 [4] of 880 nM, an IC50 (cells [5]) greater than 5000 nM and an IC50 (cells [6]) of 500 nM. It also gave an IC50 (cells [7]) of 3100 nM, an IC50 [8] of 850 nM and an IC50 (cells [9]) of 4200 nM. It also gave an IC50 at 72 h [10] greater than 6400 nM, an IC50 [11] of 1050 nM and an IC50 (cells [12]) of 1500 nM. For the same compound, the IC50 (cells [13]) was 5000 nM, the IC50 (cells [14]) was 1000 nM and the IC50 [15] was greater than 6400 nM. The IC50 [16] was 1630 nM, the IC50 [17] was 2000 nM and the IC50 [18] was greater than 6400 nM. For the same compound, the Activity (BaF3) was “inactive”, the IC50 [19] was 3480 nM and the IC50 (cells [20]) was greater than 5000 nM. It also gave an IC50 [30] of 800 nM, an IC50 [21] of 1820 nM and an IC50 (cells [22]) greater than 6400 nM. For the same compound, the IC50 (cells [23]) was 1000 nM, the IC50 (cells [24]) was greater than 5000 nM and the IC50 [31] was 2700 nM. The IC50 [32] was 600 nM, the IC50 [25] was 1750 nM and the IC50 [26] was 1000 nM. The IC50 (cells [27]) was 500 nM, the IC50 [28] was 5200 nM and the IC50 [29] was 1350 nM. The IC50 [33] was 2700 nM and the IC50 [34] was “Not Active”.
